Data as given in patent publication US20230103237A1, “BIODEGRADABLE PARTICLES AND BIODEGRADABLE PARTICLES IN CONTACT WITH ACTIVE INGREDIENTS” (The United States of America, as represented by the …, priority 2021, published 2023).

Test system: Culex quinquefasciatus mosquito larvae
Experiment: whole plant or invertebrate
Format: in vivo
Description: FIG. 5 depicts a graph of the percentage of mosquito larvae death as a function of time for the different zein-silver particle solutions. This graph includes the results from five (5) trials with twenty (20) 3rd instar or 4th instar larvae. The Y axis presents the percentage death (Lethal %). The X axis presents the time after treatment in hours. Circles represent 100 ppm zein-silver particles; triangles represent 1 ppm zein-silver particles; diamonds represent 0.1 ppm zein-silver particles.
The larvicidal effect of the zein-silver particles prepared above was tested on Culex quinquefasciatus mosquito species.

SMILES | mortality at 0.2 ppm (Culex quinquefasciatus, 40 h, read-out: Larval Mortality (%)) | killing of larvae (0.2 ppm, after 90 hours)
OCC(O)CO [Glycerol, glycerol] | 0% | –
[BH4-].[Na+] [sodium borohydride] | – | 8%
